Data: the supplement of paper PMC11424490

Key:
[1] = test system: SW837; assay: fitted bottom plateau of viability curve, % of DMSO control; higher = less maximal inhibition; extreme values may be limits of the assay
Experimental: (§1)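 CellTiter-Glo proliferation assay in KRAS G12C mutant NCI-H2122 (72 h), SW837 (144 h) and NCI-H358 cells in 384-well plates. Monotherapy dose response was fitted with a four-parameter curve after normalisation to DMSO controls (% of control, PoC). IC50 is the relative IC50, averaged over replicates. Bottom is the fitted lower plateau in %PoC; Max.Conc. is the top dose tested.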

[2] = test system: NCI-H2122; assay: as above
Experimental: as §1

Row | Compound | fitted bottom plateau of viability curve [1] [%] | fitted bottom plateau of viability curve [2] [%]
1 | Cc1ccc(Nc2nccc(N(C)c3ccc4c(C)n(C)nc4c3)n2)cc1S(N)(=O)=O [Pazopanib] (top concentration tested 10000 nM) | 91.9 | 80.9
2 | CN1CCN(c2ccc(-c3cccc(CN4CCOCC4)c3)cc2NC(=O)c2c[nH]c(=O)cc2C(F)(F)F)CC1 [OICR-9429] (top concentration tested 10000 nM) | 95.4 | 62.6
3 | O=C(Cc1ccccc1)Nc1nnc(CCSCCc2nnc(NC(=O)Cc3ccccc3)s2)s1 [BPTES] (top concentration tested 10000 nM) | 90.2 | 56.3
4 | CN(C)CCCC(=O)Nc1n[nH]c2nnc(-c3ccccc3)cc12 (top concentration tested 10000 nM) | 85.9 | 76.1
5 | CC(C)(C)c1cc(NC(=O)Nc2ccc(-c3cn4c(n3)sc3cc(OCCN5CCOCC5)ccc34)cc2)no1 [Quizartinib] (top concentration tested 1000.1 nM) | 94.1 | 79.3
6 | CCCCCOC(=O)Nc1nc(=O)n([C@@H]2O[C@H](C)[C@@H](O)[C@H]2O)cc1F [Capecitabin] (top concentration tested 50000 nM) | 101 | 75.7
7 | Cc1ncc([N+](=O)[O-])n1CCOC(=O)NC(Nc1ncccn1)C(Cl)(Cl)Cl (centres undefined) [Apcin] (top concentration tested 10000 nM) | 95.3 | 83.2
8 | N.N.[Cl][Pt][Cl] [Cisplatin] (top concentration tested 10000 nM) | 88.2 | 75.2
9 | CC(C)(C(=O)NCC(F)(F)C(F)(F)F)C(=O)N[C@@H]1C(=O)Nc2ccccc2-c2ccccc21 (top concentration tested 9999.9 nM) | 98.6 | 77.8
10 | CC(C)(C)c1nc(-c2cccc(NS(=O)(=O)c3c(F)cccc3F)c2F)c(-c2ccnc(N)n2)s1 [Dabrafenib] (top concentration tested 1000.1 nM) | 93.1 | 73.8
11 | c1ccc(-c2nn3c(c2-c2ccnc4cc(OCCN5CCOCC5)ccc24)CCC3)nc1 (top concentration tested 9999.9 nM) | 90.3 | 78.1
12 | Nc1nc(F)nc2c1ncn2[C@@H]1O[C@H](CO)[C@@H](O)[C@@H]1O [Fludarabine] (top concentration tested 9999.9 nM) | 59.4 | 71
13 | CS(=O)(=O)c1ccc(C(=O)Nc2ccc(Cl)c(-c3ccccn3)c2)c(Cl)c1 [Vismodegib] (top concentration tested 10000 nM) | 103 | 91.1
14 | CN[C@@H](C)C(=O)N[C@H](C(=O)N1CCC[C@H]1c1nc(C(=O)c2ccc(F)cc2)cs1)C1CCCCC1 [LCL161] (top concentration tested 10000 nM) | 86.1 | 69.3
15 | CC1=C(/C=C/C(C)=C/C=C/C(C)=C/C(=O)O)C(C)(C)CCC1 [Tretinoin] (top concentration tested 10000 nM) | 105 | 78.8
16 | On1ncc2cc(CCc3nn[nH]n3)ccc21 (top concentration tested 10000 nM) | 88.1 | 73.1
17 | C[C@]1(c2nc3c(C(N)=O)cccc3[nH]2)CCCN1 [Veliparib] (top concentration tested 10000 nM) | 102 | 93.6
18 | Cc1ccc(NC(=O)c2ccc(CN3CCN(C)CC3)cc2)cc1Nc1nc(-c2cccnc2)cs1 [Masitinib] (top concentration tested 1000.1 nM) | 95.6 | 79.5
19 | CCCC(CCC)C(=O)O [Valproic acid] (top concentration tested 10000 nM) | 92.8 | 72.1

Row | Compound | fitted bottom plateau of viability curve [1] [%] | fitted bottom plateau of viability curve [2] [%]
20 | COc1cc2c(Oc3ccc4[nH]c(C)cc4c3F)ncnc2cc1OCCCN1CCCC1 [Cediranib] (top concentration tested 100.11 nM) | 90.6 | 70
21 | CC(O)(CS(=O)(=O)c1ccc(F)cc1)C(=O)Nc1ccc(C#N)c(C(F)(F)F)c1 (centres undefined) [Bicalutamide] (top concentration tested 10000 nM) | 77.3 | 71.7
22 | N[C@H]1CC[C@H](N[C@@H]2C[C@H]2c2ccccc2)CC1 [ORY-1001] (top concentration tested 49.848 nM) | 90.5 | 68.1
23 | CNC(=O)c1cc(Oc2ccc(NC(=O)Nc3ccc(Cl)c(C(F)(F)F)c3)c(F)c2)ccn1 [Regorafenib] (top concentration tested 999.95 nM) | 92.7 | 82.1
24 | Cc1cc(Nc2nc(N[C@@H](C)c3ncc(F)cn3)ncc2Cl)[nH]n1 [AZD-1480] (top concentration tested 10000 nM) | 87.9 | 67
25 | C[C@H](CS)C(=O)N1CCC[C@H]1C(=O)O [Captopril] (top concentration tested 1000 nM) | 91.7 | 65.1
26 | Nc1nc(Nc2ccc3c(c2)CC[C@@H](N2CCCC2)CC3)nn1-c1cc2c(nn1)-c1ccccc1CCC2 [Bemcentinib] (top concentration tested 1000.1 nM) | 84.4 | 70.6
27 | CN(C)c1ccccc1CN1CCCN(Cc2ccccc2N(C)C)C1c1ccncc1 [GANT61] (top concentration tested 10000 nM) | 83.1 | 70.7
28 | C=C(c1ccc(C(=O)O)cc1)c1cc2c(cc1C)C(C)(C)CCC2(C)C [Bexarotene] (top concentration tested 10000 nM) | 96.9 | 89.9
29 | Cn1nnc2c(C(N)=O)ncn2c1=O [Temozolomide] (top concentration tested 50000 nM) | 93.2 | 83.2
30 | O=C(O)C1(C(=O)O)CCC1.[NH2-].[NH2-].[Pt+2] [Carboplatin] (top concentration tested 10000 nM) | 88.3 | 63.4
31 | CNC(=O)c1ccc(N2C(=S)N(c3ccc(C#N)c(C(F)(F)F)c3)C(=O)C2(C)C)cc1F [Enzalutamide] (top concentration tested 10000 nM) | 93.1 | 83.9
32 | CNC(=O)c1cc(Oc2ccc(NC(=O)Nc3ccc(Cl)c(C(F)(F)F)c3)cc2)ccn1 [Sorafenib] (top concentration tested 999.95 nM) | 92.6 | 84.3
33 | Cc1ccc(NC(=O)c2ccc(CN3CCN(C)CC3)cc2)cc1Nc1nccc(-c2cccnc2)n1 [Imatinib] (top concentration tested 1000 nM) | 95.9 | 71
34 | CCN1CCN(c2ccc(Nc3cc(N(C)C(=O)Nc4c(Cl)c(OC)cc(OC)c4Cl)ncn3)cc2)CC1 [BGJ398] (top concentration tested 1000 nM) | 90.4 | 78.2
35 | N#CC[C@H](C1CCCC1)n1cc(-c2ncnc3[nH]ccc23)cn1 [Ruxolitinib] (top concentration tested 9999.9 nM) | 88.3 | 73.3
36 | NC(=O)Nc1cc(-c2cccc(F)c2)sc1C(=O)N[C@H]1CCCNC1 [AZD-7762] (top concentration tested 99.882 nM) | 89.7 | 62.8
37 | O=C(O)CCCCC(CCSCc1ccccc1)SCc1ccccc1 (centres undefined) [CPI-613] (top concentration tested 10000 nM) | 89.5 | 93.6
